In patent publication EP4692083A1, “NOVEL AZABICYCLE DERIVATIVES AND PHARMACEUTICAL COMPOSITION FOR INHIBITING AUTOTAXIN, COMPRISING SAME” (Nextgen Bioscience Co., Ltd., priority 2023, dated 2024):

Molecular target: human Autotaxin protein (Homo sapiens, UniProt Q13822)
Test: Evaluation of the inhibitory activity against human Autotaxin protein (18:1 LysoPC substrate, choline assay kit, absorbance at 570 nm)
Type: biochemical
Conditions: at 500nM compound, 2 hours at 37 °C, read-out: Inhibition rate (%, at 500nM)
Description: Solutions of each synthesized compound (80 uM, 100% dimethyl sulfoxide) were sequentially diluted 5-fold with dimethyl sulfoxide to prepare 6 concentrations. Each concentration of the compound was diluted 2-fold with 1x test buffer (50 mM Tris-Cl (pH 8.0), 5 mM KCl, 1 mM CaCl2, 1 mM MgCl2, 140 mM NaCl, deionized water, 1 mg/mL BSA), and 1 uL (1.25% dimethylsulfoxide) of the diluted mixture was dispensed into each well of a 96-well clear round-bottom plate. 9 uL of 1x test buffer was added, and 20 uL of 240 nM human autotaxin protein (buffer: 50 mM Tris-HCl, pH 8.0, with 150 mM sodium chloride and 20% glycerol) was added. 10 uL of sonicated 360 uM 18:1 LysoPC (diluted with 1x assay buffer) was added. The reaction was performed for 2 hours in a shaking incubator at 37 °C, and a secondary reaction mixture (choline assay kit, KA1662) (65 uL of 1x assay buffer: 1 uL of choline oxidase: 1 uL of dye probe) was prepared. 60 uL of the secondary reaction mixture was added to the plate where the reaction was performed, and incubated for 30 minutes in a shaker. The absorbance value was measured at a wavelength of 570 nm using a SpectraMax iD3 microplate reader. The percentage inhibition activity value (% inhibition) was calculated by the formula: (1 - absorbance value test group / absorbance value control group) X 100.

SMILES	inhibition at 0.5 µM [%]
Fc1cc2c(cc1F)CC(Nc1ncc(-c3nnc(N4C[C@@H]5[C@H](C4)[C@H]5c4cnn[nH]4)o3)cn1)C2 [Example 17, 5-(5-((1R,5S,6r)-6-(1H-1,2,3-Triazol-5-yl)-3-azabicyclo[3.1.0]hexan-3-yl)-1,3,4-oxadiazol-2-yl)-N-(5,6-difluoro-2,3-dihydro-1H-inden-2-yl)pyrimidin-2-amine]	96.7
Clc1ccc(CNc2ncc(-c3nnc(N4C[C@@H]5[C@H](C4)[C@H]5c4cnn[nH]4)o3)cn2)cc1Cl [Example 6, 5-(5-((1R,5S,6r)-6-(1H-1,2,3-Triazol-5-yl)-3-azabicyclo[3.1.0]hexan-3-yl)-1,3,4-oxadiazol-2-yl)-N-(3,4-dichlorobenzyl)pyrimidin-2-amine]	68.9
Fc1ccc(CNc2ncc(-c3nnc(N4C[C@@H]5[C@H](C4)[C@H]5c4cnn[nH]4)o3)cn2)cc1F [Example 4, 5-(5-((1R,5S,6r)-6-(1H-1,2,3-Triazol-5-yl)-3-azabicyclo[3.1.0]hexan-3-yl)-1,3,4-oxadiazol-2-yl)-N-(3,4-difluorobenzyl)pyrimidin-2-amine]	81.5
O=C(CCCc1cnc(NCc2cc(Cl)cc(Cl)c2)nc1)N1C[C@@H]2[C@H](C1)[C@H]2c1cnn[nH]1 [Example 44, 1-((1R,5S,6r)-6-(1H-1,2,3-Triazol-5-yl)-3-azabicyclo[3.1.0]hexan-3-yl)-4-(2-((3,5-dichlorobenzyl)amino)pyrimidin-5-yl)butan-1-one]	58.6
N#Cc1cccc(CNc2ncc(-c3nnc(N4C[C@@H]5[C@H](C4)[C@H]5c4cnn[nH]4)o3)cn2)c1 [Example 25, 3-(((5-(5-((1R,5S,6r)-6-(1H-1,2,3-Triazol-5-yl)-3-azabicyclo[3.1.0]hexan-3-yl)-1,3,4-oxadiazol-2-yl)pyrimidin-2-yl)amino)methyl)benzonitrile]	95.2
FC(F)(F)c1ccccc1CNc1ncc(-c2nnc(N3C[C@@H]4[C@H](C3)[C@H]4c3cnn[nH]3)o2)cn1 [Example 22, 5-(5-((1R,5S,6r)-6-(1H-1,2,3-Triazol-5-yl)-3-azabicyclo[3.1.0]hexan-3-yl)-1,3,4-oxadiazol-2-yl)-N-(2-(trifluoromethyl)benzyl)pyrimidin-2-amine]	98.4
c1ccc(Nc2ncc(-c3nnc(N4C[C@@H]5[C@H](C4)[C@H]5c4cnn[nH]4)o3)cn2)cc1 [Example 36, 5-(5-((1R,5S,6r)-6-(1H-1,2,3-Triazol-5-yl)-3-azabicyclo[3.1.0]hexan-3-yl)-1,3,4-oxadiazol-2-yl)-N-phenylpyrimidin-2-amine]	65.2
Cc1ccc(CCNc2ncc(-c3nnc(N4C[C@@H]5[C@H](C4)[C@H]5c4cnn[nH]4)o3)cn2)cc1 [Example 31, 5-(5-((1R,5S,6r)-6-(1H-1,2,3-Triazol-5-yl)-3-azabicyclo[3.1.0]hexan-3-yl)-1,3,4-oxadiazol-2-yl)-N-(4-methylphenethyl)pyrimidin-2-amine]	97
c1ccc2c(c1)CC(Nc1ncc(C3CC(N4C[C@@H]5[C@H](C4)[C@H]5c4cnn[nH]4)=NO3)cn1)C2 (stereo partly drawn) [Example 50, 5-(3-((1R,5S,6r)-6-(1H-1,2,3-Triazol-5-yl)-3-azabicyclo[3.1.0]hexan-3-yl)-4,5-dihydroisoxazol-5-yl)-N-(2,3-dihydro-1H-inden-2-yl)pyrimidin-2-amine]	95.5
c1ccc2c(c1)CC[C@H]2Nc1ncc(-c2nnc(N3C[C@@H]4[C@H](C3)[C@H]4c3cnn[nH]3)o2)cn1 [Example 34, 5-(5-((1R,5S,6R)-6-(1H-1,2,3-Triazol-5-yl)-3-azabicyclo[3.1.0]hexan-3-yl)-1,3,4-oxadiazol-2-yl)-N-((R)-2,3-dihydro-1H-inden-1-yl)pyrimidin-2-amine]	90.8
Clc1ccc(CCNc2ccc(-c3nnc(N4C[C@@H]5[C@H](C4)[C@H]5c4cnn[nH]4)o3)cn2)cc1 [Example 41, 5-(5-((1R,5S,6r)-6-(1H-1,2,3-Triazol-5-yl)-3-azabicyclo[3.1.0]hexan-3-yl)-1,3,4-oxadiazol-2-yl)-N-(4-chlorophenethyl)pyridin-2-amine]	95.8
N#Cc1ccc(CNc2ncc(-c3nnc(N4C[C@@H]5[C@H](C4)[C@H]5c4cnn[nH]4)o3)cn2)cc1 [Example 24, 4-(((5-(5-((1R,5S,6r)-6-(1H-1,2,3-Triazol-5-yl)-3-azabicyclo[3.1.0]hexan-3-yl)-1,3,4-oxadiazol-2-yl)pyrimidin-2-yl)amino)methyl)benzonitrile]	66.3
c1ccc2c(c1)CC(Nc1ncc(-c3nnc(N4C[C@@H]5[C@H](C4)[C@H]5c4cnn[nH]4)o3)cn1)C2 [Example 16, 5-(5-((1R,5S,6r)-6-(1H-1,2,3-Triazol-5-yl)-3-azabicyclo[3.1.0]hexan-3-yl)-1,3,4-oxadiazol-2-yl)-N-(2,3-dihydro-1H-inden-2-yl)pyrimidin-2-amine]	98.6
Clc1cc(Cl)cc(CNc2ncc(-c3nnc(N4C[C@@H]5[C@H](C4)[C@H]5c4cnn[nH]4)o3)cn2)c1 [Example 7, 5-(5-((1R,5S,6r)-6-(1H-1,2,3-Triazol-5-yl)-3-azabicyclo[3.1.0]hexan-3-yl)-1,3,4-oxadiazol-2-yl)-N-(3,5-dichlorobenzyl)pyrimidin-2-amine]	92
Clc1ccc(CCNc2ncc(C3CC(N4C[C@@H]5[C@H](C4)[C@H]5c4cnn[nH]4)=NO3)cn2)cc1 (stereo partly drawn) [Example 49, 5-(3-((1R,5S,6r)-6-(1H-1,2,3-Triazol-5-yl)-3-azabicyclo[3.1.0]hexan-3-yl)-4,5-dihydroisoxazol-5-yl)-N-(4-chlorophenethyl)pyrimidin-2-amine]	76.4

Results, then the compound that gave them:

inhibition at 0.5 µM [%]	SMILES
86	Fc1ccc(CCNc2ncc(-c3nnc(N4C[C@@H]5[C@H](C4)[C@H]5c4cnn[nH]4)o3)cn2)cc1 [Example 13, 5-(5-((1R,5S,6r)-6-(1H-1,2,3-Triazol-5-yl)-3-azabicyclo[3.1.0]hexan-3-yl)-1,3,4-oxadiazol-2-yl)-N-(4-fluorophenethyl)pyrimidin-2-amine]
25.5	O=C(CCCc1nnc(NC2Cc3ccccc3C2)s1)N1C[C@@H]2[C@H](C1)[C@H]2c1cnn[nH]1 [Example 38, 1-((1R,5S,6r)-6-(1H-1,2,3-Triazol-5-yl)-3-azabicyclo[3.1.0]hexan-3-yl)-4-(5-((2,3-dihydro-1H-inden-2-yl)amino)-1,3,4-thiadiazol-2-yl)butan-1-one]
87.6	Brc1ccc2c(c1)CC(Nc1ncc(-c3nnc(N4C[C@@H]5[C@H](C4)[C@H]5c4cnn[nH]4)o3)cn1)C2 (stereo partly drawn) [Example 18, 5-(5-((1R,5S,6r)-6-(1H-1,2,3-Triazol-5-yl)-3-azabicyclo[3.1.0]hexan-3-yl)-1,3,4-oxadiazol-2-yl)-N-(5-bromo-2,3-dihydro-1H-inden-2-yl)pyrimidin-2-amine]
40.6	c1cc2c(cc1CNc1ncc(-c3nnc(N4C[C@@H]5[C@H](C4)[C@H]5c4cnn[nH]4)o3)cn1)OCO2 [Example 9, 5-(5-((1R,5S,6r)-6-(1H-1,2,3-Triazol-5-yl)-3-azabicyclo[3.1.0]hexan-3-yl)-1,3,4-oxadiazol-2-yl)-N-(benzo[d][1,3]dioxol-5-ylmethyl)pyrimidin-2-amine]
13.9	Cn1nncc1[C@H]1[C@@H]2CN(c3nnc(-c4cnc(NCCc5ccc(Cl)cc5)nc4)o3)C[C@@H]21 [Example 47, N-(4-Chlorophenethyl)-5-(5-((1R,5S,6r)-6-(1-methyl-1H-1,2,3-triazol-5-yl)-3-azabicyclo[3.1.0]hexan-3-yl)-1,3,4-oxadiazol-2-yl)pyrimidin-2-amine]
93.7	N#Cc1ccc(CCNc2ncc(-c3nnc(N4C[C@@H]5[C@H](C4)[C@H]5c4cnn[nH]4)o3)cn2)cc1 [Example 33, 4-(2-((5-(5-((1R,5S,6r)-6-(1H-1,2,3-Triazol-5-yl)-3-azabicyclo[3.1.0]hexan-3-yl)-1,3,4-oxadiazol-2-yl)pyrimidin-2-yl)amino)ethyl)benzonitrile]
86.4	Fc1cc(F)cc(CNc2ncc(-c3nnc(N4C[C@@H]5[C@H](C4)[C@H]5c4cnn[nH]4)o3)cn2)c1 [Example 5, 5-(5-((1R,5S,6r)-6-(1H-1,2,3-Triazol-5-yl)-3-azabicyclo[3.1.0]hexan-3-yl)-1,3,4-oxadiazol-2-yl)-N-(3,5-difluorobenzyl)pyrimidin-2-amine]
88.5	FC(F)(F)c1ccc(CNc2ncc(-c3nnc(N4C[C@@H]5[C@H](C4)[C@H]5c4cnn[nH]4)o3)cn2)cc1 [Example 20, 5-(5-((1R,5S,6r)-6-(1H-1,2,3-Triazol-5-yl)-3-azabicyclo[3.1.0]hexan-3-yl)-1,3,4-oxadiazol-2-yl)-N-(4-(trifluoromethyl)benzyl)pyrimidin-2-amine]
34.7	Cc1nn[nH]c1[C@H]1[C@@H]2CN(c3nnc(-c4cnc(NCCc5ccc(Cl)cc5)nc4)o3)C[C@@H]21 [Example 48, N-(4-Chlorophenethyl)-5-(5-((1R,5S,6r)-6-(4-methyl-1H-1,2,3-triazol-5-yl)-3-azabicyclo[3.1.0]hexan-3-yl)-1,3,4-oxadiazol-2-yl)pyrimidin-2-amine]
98.7	O=C(/C=C/c1cnc(NCCc2ccc(Cl)cc2)nc1)N1C[C@@H]2[C@H](C1)[C@H]2c1cnn[nH]1 [Example 45, (E)-1-((1R,5S,6r)-6-(1H-1,2,3-Triazol-5-yl)-3-azabicyclo[3.1.0]hexan-3-yl)-3-(2-((4-chlorophenethyl)amino)pyrimidin-5-yl)prop-2-en-1-one]
